Test results taken from patent US20030083374A1, “NAALADase inhibitors useful as pharmaceutical compounds and compositions” (priority 1998, published 2003).

How the values were obtained:
STZ-diabetic animals = experiment: motor and sensory nerve conduction velocity in STZ-diabetic animals; assay type: in vivo, rats; details: either dose (10 mg/kg or 1 mg/kg); significant after 12 weeks at 10 mg/kg, earlier at 1 mg/kg
Experimental: (§1) Male Sprague-Dawley rats (200-225 g) were rendered diabetic by intravenous administration of streptozotocin (STZ, 70 mg/kg in phosphate buffered saline). Diabetic animals were divided into five groups: one group receiving Compound 2 (10 mg/kg or 1 mg/kg), Compound 1 (10 mg/kg or 1 mg/kg) or vehicle. Another group of animals (non-STZ treated) served as non-diabetic controls. Drug/vehicle treatment was started in diabetic animals 45 days post-STZ administration. STZ-induced diabetic rats were tested for sensitivity to a heat source as soon as blood glucose levels rose to 320 mg/dl or above (30 days post STZ). The rats were then acclimated to the Hargreaves apparatus and thermal nociception was monitored using an infrared heat source directed into the […] surface of the hindpaw, and the time taken for the animal to remove its paw noted to the nearest 0.1 seconds (see Hargreaves et al. 1998 for detailed method). The intensity of the beam source was adjusted such that the mean latency for control animals (non-STZ treated) was approximately 10 seconds. Each animal was tested 8 times and the mean difference score (between mean non-diabetic control latency and mean diabetic latency) are graphically presented in FIGS. 19A and 19B.
Motor and sensory nerve conduction velocity was also measured in STZ-diabetic animals after 4, 8 and 12 weeks of treatment (see De Koning and Gispen 1987 for detailed method). Briefly, stimulating needle electrodes were inserted close to the sciatic and tibial nerves with recording electrodes being placed subcutaneously over the distal foot muscles, in anesthetized rats.

PCP-treated rats = experiment: in vivo assay on schizophrenia (PCP model); details: 50 mg/kg i.p. before PCP (5 mg/kg)
Experimental: Rats treated with PCP develop symptoms, such as frantic running and incessant head-turning, that parallel psychotic symptoms in humans. Thus, to examine the effects of NAALADase inhibition on schizophrenia, rats were treated intraperitoneally with Compound 1 (50 mg/kg), Compound 2 (50 mg/kg) or a vehicle (H2O) before they received PCP (5 mg/kg). Head rolling scores were measured for over 2 hours following PCP injection.

BB/W diabetic rats [1] = experiment: nerve conduction velocity in BB/W diabetic rats; assay type: in vivo, Male BB/W rats; details: 10 mg/kg daily; starting at 8 weeks, through six months
Description: Male BB/W rats (BR1, Mass) spontaneously develop a cell mediated autoimmune destruction of pancreatic B cells, resulting in onset of insulin-dependent (Type I) diabetes (Guberski 1994). […] This renders them valuable for experimental trials of new compounds for future treatments of this major disorder. In the present study, Compound 1 and Compound 2 were examined for their ability to alter the progression of diabetic neuropathy. The rats received daily injection of Compound 1 or Compound 2 (10 mg/kg i.p.) or vehicle, starting at the onset of diabetes (hyperglycemia) and up to 6 months thereafter. Another group of non-diabetic rats also receiving vehicle were tested. All animals were continuously monitored for body weight, urine volume, blood sugar and glycated haemoglobin. In the first month of the study, all animals were tested for thermal nociception in a Hargreaves apparatus, weekly. After the first month this was done biweekly and then monthly. The testing consists of directing an infrared heat source onto the […] surface of the rat hindpaw and noting the time taken for the animal to remove its paw (for detailed method see Hargreaves et al. 1998). […]
Nerve conduction velocity was also measured every two weeks through the first eight weeks of treatment and every month thereafter through to the six months of treatment (see De Koning et al. 1987 for method details). […]

cortical cell cultures = experiment: in vitro assay of NAALADase inhibitors on ischemia in cortical cell cultures; assay type: cell-based; details: concentration required to cause a 50% reduction in glutamate toxicity following an ischemic insult (potassium cyanide and 2-deoxyglucose)
Description: Some results are set forth in U.S. Pat. Nos. 5,672,592, 5,795,877, 5,863,536, 5,880,112 and 5,902,817, allowed U.S. patent application Ser. Nos. 08/825,997, 08/833,628, 08/842,360 and 08/899,319 for which the issue fees have been paid, the entire contents of which patents and applications are herein incorporated by reference. Other results are provided below in TABLE III.

[2] = test system: STZ-induced diabetic rats; experiment: in vivo assay on neuropathic pain in STZ-diabetic rats (Hargreaves); design: species or system Male Sprague-Dawley rats; details: 10 mg/kg i.p. daily, started 45 days post-STZ
Experimental: as §1

BB/W diabetic rats [3] = experiment: progression of neuropathic pain in BB/W diabetic rats, thermal nociception; assay type: in vivo, Male BB/W rats; details: 10 mg/kg i.p. daily; starting after 4 weeks, through six months
Description: Male BB/W rats (BR1, Mass) spontaneously develop a cell mediated autoimmune destruction of pancreatic B cells, resulting in onset of insulin-dependent (Type I) diabetes (Guberski 1994). […] This renders them valuable for experimental trials of new compounds for future treatments of this major disorder. In the present study, Compound 1 and Compound 2 were examined for their ability to alter the progression of diabetic neuropathy. The rats received daily injection of Compound 1 or Compound 2 (10 mg/kg i.p.) or vehicle, starting at the onset of diabetes (hyperglycemia) and up to 6 months thereafter. Another group of non-diabetic rats also receiving vehicle were tested. All animals were continuously monitored for body weight, urine volume, blood sugar and glycated haemoglobin. In the first month of the study, all animals were tested for thermal nociception in a Hargreaves apparatus, weekly. After the first month this was done biweekly and then monthly. The testing consists of directing an infrared heat source onto the […] surface of the rat hindpaw and noting the time taken for the animal to remove its paw (for detailed method see Hargreaves et al. 1998). Each animal was tested 8 times and the mean withdrawal latency noted.

`O=C(O)CCC(CCS)C(=O)O` (stereo not drawn) [Compound 1, 2-(2-sulfanylethyl)pentanedioic acid] was tested, and the “motor and sensory nerve conduction velocities vs. diabetic controls” value (STZ-diabetic animals) was “increased”, the “locomotor-activating effects of PCP (head rolling scores)” value (PCP-treated rats) was “significantly reduced” and the “nerve conduction deficits vs. diabetic controls receiving vehicle” value (BB/W diabetic rats [1]) was “significantly less severe nerve conduction deficits”. For the same compound, the EC50 (cortical cell cultures) was 2 nM, the “hyperalgesic response in diabetic rats” value [2] was “completely reversed” and the “withdrawal latencies vs. diabetic vehicle-treated rats” value (BB/W diabetic rats [3]) was “longer withdrawal latencies”.
